Results on 12 compounds are retold here after ChEMBL document CHEMBL1201862, “PubChem BioAssay data set” (2004).

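1) Cells in 96-well plates. 2) Compound, 48 h, 5 concentrations. 3) Linear interpolation between surrounding doses. 4) Unreached endpoint = highest concentration. GI50 marks 50% less growth.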 The source made the active and inactive calls. Cut-off read from the data, not from the text of the source: active = GI50 up to about 1.1 µM and inactive = higher.

Test systems include HOP-92; HT-29; K562; TK-10; SK-MEL-5; SNB-19; SK-MEL-2; Malme-3M; RPMI-8226; DU-145; UACC-62; HOP-62; SK-MEL-28; HCT-15; SNB-75; NCI-H226; NCI-H460; MCF7; SF-539.
Common to all, as to assay: growth of human tumour cells (NCI), 48 h

In the case of `Cc1sc2nc3n(c(=O)c2c1C)N=CN(c1ccc(Cl)cc1)C3`, the GI50 with HOP-92, in the experiment with HT-29, with K562, in the experiment on TK-10, in the experiment on SK-MEL-5 and in the experiment with SNB-19 was > 100 µM (inactive) each time. Besides, the GI50 was > 100 µM (inactive) in the experiment with SK-MEL-2; 33.3 µM (inactive) in the experiment with Malme-3M; > 100 µM (inactive) in the experiment on RPMI-8226; > 100 µM (inactive) in the experiment with DU-145; > 100 µM (inactive) with UACC-62; 99.3 µM (inactive) with HOP-62. Besides, the GI50 with SK-MEL-28 was > 100 µM (inactive); in the experiment on HCT-15 it was above 100 µM; in the experiment with SNB-75 it was > 100 µM (inactive); in the experiment on NCI-H226, > 100 µM (inactive); in the experiment on NCI-H460 it was > 100 µM (inactive).

In the case of `O=C(Cn1c2ccc(Br)cc2c2nc3ccccc3nc21)NCc1ccccc1`, the GI50 in the experiment with HOP-92 is 2.01 µM (inactive); in the experiment on HT-29, > 100 µM (inactive); in the experiment on K562, > 100 µM (inactive); in the experiment with TK-10, 17.7 µM (inactive); in the experiment with SK-MEL-5, > 100 µM (inactive); in the experiment with SNB-19, 22.3 µM (inactive). Also, the GI50 in the experiment with SK-MEL-2 is 25.3 µM (inactive); with Malme-3M it was 41.7 µM (inactive); with RPMI-8226, > 100 µM (inactive); in the experiment on DU-145, > 100 µM (inactive); in the experiment with UACC-62, 24.4 µM (inactive); in the experiment with HOP-62, 23 µM (inactive). Moreover, the GI50 was > 100 µM (inactive) in the experiment on SK-MEL-28; above 100 µM in the experiment on HCT-15; 4.45 µM (inactive) in the experiment with SNB-75; 78.7 µM (inactive) with NCI-H226; > 100 µM (inactive) with NCI-H460.

Consider `O=C1Nc2c(Cl)cc(Cl)cc2/C1=N/N=C/c1ccco1`, for which the GI50 in the experiment with HOP-92 was 27.4 µM (inactive); in the experiment on HT-29 it was 28.8 µM (inactive); in the experiment with MCF7, 20.2 µM (inactive); with K562, 31.4 µM (inactive); with TK-10, 48.5 µM (inactive); with SK-MEL-5 it was 29.6 µM (inactive). Besides, the GI50 is 80.7 µM (inactive) with SNB-19; 24.4 µM (inactive) with SK-MEL-2; 56.6 µM (inactive) in the experiment with Malme-3M; 21.5 µM (inactive) in the experiment with UACC-62; 34.7 µM (inactive) in the experiment on HOP-62; 33 µM (inactive) in the experiment with SK-MEL-28. The GI50 in the experiment on HCT-15 was 28.8 µM; in the experiment on SNB-75 it was 10.5 µM (inactive); with NCI-H226, 23 µM (inactive); in the experiment with SF-539, 29.1 µM (inactive); in the experiment on NCI-H460, 28.2 µM (inactive).

Turning to `CSC[C@H](NC(=O)COc1cccc2cnccc12)C(=O)NC(Cc1ccccc1)C(O)C(=O)N1CSC[C@H]1C(=O)NC(C)(C)C` (stereo partly specified), the GI50 with HT-29 was 33.7 µM (inactive); in the experiment with MCF7, 68.2 µM (inactive); with K562, 32.5 µM (inactive); with TK-10 it was > 100 µM (inactive); with SK-MEL-5, > 10 µM (inactive); in the experiment with SNB-19 it was > 100 µM (inactive). Moreover, the GI50 is > 100 µM (inactive) with SK-MEL-2; > 100 µM (inactive) in the experiment with Malme-3M; 23.6 µM (inactive) in the experiment on RPMI-8226; 42.8 µM (inactive) with DU-145; 57.3 µM (inactive) in the experiment on UACC-62; > 100 µM (inactive) with HOP-62. Moreover, the GI50 with SK-MEL-28 was 78.2 µM (inactive); in the experiment with HCT-15, above 100 µM; with SNB-75, 78.9 µM (inactive); with NCI-H226, > 100 µM (inactive); with SF-539, 11 µM (inactive); in the experiment with NCI-H460, 38.9 µM (inactive).

Regarding `Cn1c2ccccc2n2c(=O)c3cccnc3c(C#N)c12`, the GI50 in the experiment on HOP-92 was > 100 µM (inactive); with HT-29, 63 µM (inactive); in the experiment with TK-10, > 100 µM (inactive); in the experiment with SK-MEL-5, 9.51 µM (inactive); in the experiment with Malme-3M it was > 100 µM (inactive); with RPMI-8226, > 100 µM (inactive). For the same compound, the GI50 in the experiment on DU-145 was > 100 µM (inactive); with HOP-62, 76.2 µM (inactive); in the experiment with SK-MEL-28 it was > 100 µM (inactive); in the experiment on HCT-15, 37.8 µM; in the experiment on SNB-75 it was > 100 µM (inactive); in the experiment with NCI-H226, 4.42 µM (inactive). The GI50 was 66.4 µM (inactive) in the experiment with SF-539 and 18.7 µM (inactive) with NCI-H460.

Regarding `Cc1c(C#N)c2nc3ccccc3n2c(=O)/c1=C/Nc1ccc(Cl)cc1`, the GI50 in the experiment with HOP-92 was 20.1 µM (inactive); in the experiment with HT-29, > 100 µM (inactive); in the experiment on MCF7 it was 55.2 µM (inactive); in the experiment on K562, 2.72 µM (inactive); with TK-10, 14.2 µM (inactive); in the experiment on SK-MEL-5, 19.4 µM (inactive). The GI50 is 11 µM (inactive) with SNB-19; 14.2 µM (inactive) in the experiment on SK-MEL-2; > 100 µM (inactive) with Malme-3M; 37.8 µM (inactive) in the experiment on RPMI-8226; 15.8 µM (inactive) in the experiment with UACC-62; 12.9 µM (inactive) in the experiment on HOP-62. For the same compound, the GI50 is > 100 µM (inactive) with SK-MEL-28; 8.65 µM in the experiment on HCT-15; 7.21 µM (inactive) in the experiment on SNB-75; 42.3 µM (inactive) in the experiment with NCI-H226; 12.1 µM (inactive) in the experiment with SF-539; 29.2 µM (inactive) with NCI-H460.

As to `O=C1CC(C(CC(=O)c2ccccc2)c2ccccc2)C(=O)c2ccccc2N1` (stereo unspecified), the GI50 is 32.3 µM (inactive) in the experiment with HT-29; 25.9 µM (inactive) with MCF7; 33.1 µM (inactive) in the experiment on K562; 24.2 µM (inactive) in the experiment on SK-MEL-5; 51.5 µM (inactive) in the experiment with SNB-19; 16 µM (inactive) in the experiment with SK-MEL-2. In addition, the GI50 is 28.4 µM (inactive) in the experiment with Malme-3M; 22.1 µM (inactive) with RPMI-8226; 48.6 µM (inactive) with DU-145; 31.6 µM (inactive) in the experiment with UACC-62; 51.1 µM (inactive) with HOP-62; 33.8 µM in the experiment on HCT-15. For the same compound, the GI50 in the experiment on SNB-75 is 30.8 µM (inactive); with NCI-H226, 24.4 µM (inactive); with SF-539, 38.3 µM (inactive); in the experiment with NCI-H460, 33.3 µM (inactive).

With `Oc1cn(-c2ccc(Cl)cc2)nc1-c1nnc(Nc2ccccc2)o1`, the GI50 in the experiment with HT-29 was 9.55 µM (inactive); with MCF7, 16.9 µM (inactive); with TK-10 it was 18.5 µM (inactive); in the experiment on SK-MEL-5, 11.4 µM (inactive); in the experiment with SNB-19 it was 20.9 µM (inactive); in the experiment on SK-MEL-2, 20.2 µM (inactive). Further, the GI50 in the experiment with Malme-3M is 25.2 µM (inactive); in the experiment with DU-145 it was 15.4 µM (inactive); in the experiment on UACC-62, 16.6 µM (inactive); in the experiment on HOP-62 it was 17.7 µM (inactive); in the experiment with SK-MEL-28, 17.7 µM (inactive); in the experiment with HCT-15, 10.4 µM. Moreover, the GI50 in the experiment on SNB-75 is 20.8 µM (inactive); with NCI-H226, 8.39 µM (inactive); in the experiment with SF-539, 15.3 µM (inactive); in the experiment with NCI-H460 it was 19.9 µM (inactive).

Take `Cn1c2ccccc2n2c3ncccc3c(=O)cc12`: the GI50 with HOP-92 was 54.5 µM (inactive); in the experiment with HT-29 it was 38.9 µM (inactive); with K562, 78.3 µM (inactive); with TK-10, 74.6 µM (inactive); in the experiment with SK-MEL-5 it was 32.9 µM (inactive); in the experiment on SNB-19 it was 35.2 µM (inactive). In addition, the GI50 is 45 µM (inactive) in the experiment on Malme-3M; 48.1 µM (inactive) in the experiment with RPMI-8226; 49.5 µM (inactive) in the experiment with DU-145; 32.1 µM (inactive) with HOP-62; > 100 µM (inactive) with SK-MEL-28; 31 µM in the experiment on HCT-15. For the same compound, the GI50 is 44.1 µM (inactive) in the experiment with SNB-75, 44.3 µM (inactive) in the experiment on NCI-H226, 45.9 µM (inactive) with SF-539 and 33 µM (inactive) in the experiment with NCI-H460.

As to `Fc1cc(C2=Nn3c(CNc4ccc(Cl)cc4)nnc3S/C2=C\c2ccc(-c3ccc(Cl)cc3)o2)c(Cl)cc1Cl`, the GI50 was 32.8 µM (inactive) in the experiment on HT-29; 38.8 µM (inactive) with MCF7; 11.9 µM (inactive) in the experiment on K562; 17.5 µM (inactive) in the experiment with TK-10; 26.1 µM (inactive) in the experiment on SK-MEL-5; 44 µM (inactive) in the experiment with SNB-19. The GI50 in the experiment with SK-MEL-2 was 22.6 µM (inactive); in the experiment on Malme-3M, 17.3 µM (inactive); in the experiment on RPMI-8226, 23.2 µM (inactive); in the experiment with DU-145, 65 µM (inactive); with UACC-62 it was 13.6 µM (inactive); in the experiment on HOP-62 it was 21.8 µM (inactive). Moreover, the GI50 is 67 µM (inactive) with SK-MEL-28, above 100 µM in the experiment with HCT-15, 26.5 µM (inactive) in the experiment with NCI-H226 and 65.3 µM (inactive) with NCI-H460.

Regarding `O=C1CC(c2ccc[nH]2)=NN1c1ccccc1`, the GI50 was > 100 µM (inactive) in the experiment on HOP-92; > 100 µM (inactive) in the experiment with HT-29; 73.5 µM (inactive) in the experiment with K562; > 100 µM (inactive) in the experiment with TK-10; > 100 µM (inactive) in the experiment with SK-MEL-5; > 100 µM (inactive) with SNB-19. In addition, the GI50 in the experiment with SK-MEL-2, in the experiment on Malme-3M, in the experiment with RPMI-8226, in the experiment with DU-145, with UACC-62 and in the experiment on HOP-62 was > 100 µM (inactive) throughout. The GI50 in the experiment with SK-MEL-28 was > 100 µM (inactive); in the experiment with HCT-15, above 100 µM; in the experiment on SNB-75, > 100 µM (inactive); in the experiment on NCI-H226 it was > 100 µM (inactive); with SF-539, > 100 µM (inactive); in the experiment with NCI-H460, > 100 µM (inactive).

As for `O=C(O)c1cc(/C=C/c2cc(O)ccc2O)ccc1O`, the GI50 in the experiment with HT-29 is > 10 µM (inactive); with MCF7, 3.91 µM (inactive); in the experiment with K562, 2.85 µM (inactive); in the experiment with TK-10, > 10 µM (inactive); in the experiment with SNB-19, > 10 µM (inactive); with SK-MEL-2, > 10 µM (inactive). In addition, the GI50 with Malme-3M is > 10 µM (inactive); in the experiment with DU-145, > 10 µM (inactive); in the experiment on UACC-62, > 10 µM (inactive); in the experiment with HCT-15 it was above 10 µM; with NCI-H226, > 10 µM (inactive); in the experiment on SF-539 it was > 10 µM (inactive). Also, the GI50 in the experiment with NCI-H460 was > 10 µM (inactive).
